Data from publication PMC11284792, “Backbone-Determined Antiarrhythmic Structure–Activity Relationships for a Mirror Image, Oligomeric Depsipeptide Natural Product” (Journal of Medicinal Chemistry, 2024).
“Also recorded” adds a separate entry of the source. Where two headings read alike, the source gives them in different places.

Experiments:
[1] = the molecule shown is the open-chain precursor, amide bond, 24-membered ring, 3 steps
RyR2 = biological target: T1, RyR2 (Mus musculus, UniProt E9Q401); test: Calcium spark assay in saponin-permeabilized ventricular cardiomyocytes; type: cell-based, mouse (C57BL/6J); conditions: for Normalized Calcium Leak: CSV supplement, Series 2-5; for Normalized Calcium Leak / Calcium spark Amplitude (normalized to vehicle) / Calcium spark Leak (normalized to vehicle) / Calcium spark Mass (normalized to vehicle) / Calcium spark Frequency (normalized to vehicle): 25 μM drug, normalized to vehicle (DMSO), mean ± standard deviation; for Calcium spark Amplitude (normalized to vehicle) / Calcium spark Leak (normalized to vehicle) / Calcium spark Mass (normalized to vehicle) / Calcium spark Frequency (normalized to vehicle): Supplement Tables 2-3; for Calcium spark Amplitude (normalized to vehicle) / Calcium spark Leak (normalized to vehicle) / Calcium spark Mass (normalized to vehicle): permeabilized murine cardiomyocytes; for Calcium spark Frequency (normalized to vehicle): permeabilized murine left ventricular myocytes, 15 min incubation; for Inhibition of RyR2-mediated calcium sparks (in words): spark frequency after 15 min incubation with 25 μM compound, permeabilized myocytes
T1 construct: ventricular cardiomyocytes were isolated from C57Bl/6J mice, adhered to laminin-coated glass bottom culture dishes, permeabilized with saponin; endogenous in cells; host or cells: left ventricular cardiomyocytes freshly isolated from C57BL/6J mice, saponin-permeabilized
T1 sequence (E9Q401 whole entry): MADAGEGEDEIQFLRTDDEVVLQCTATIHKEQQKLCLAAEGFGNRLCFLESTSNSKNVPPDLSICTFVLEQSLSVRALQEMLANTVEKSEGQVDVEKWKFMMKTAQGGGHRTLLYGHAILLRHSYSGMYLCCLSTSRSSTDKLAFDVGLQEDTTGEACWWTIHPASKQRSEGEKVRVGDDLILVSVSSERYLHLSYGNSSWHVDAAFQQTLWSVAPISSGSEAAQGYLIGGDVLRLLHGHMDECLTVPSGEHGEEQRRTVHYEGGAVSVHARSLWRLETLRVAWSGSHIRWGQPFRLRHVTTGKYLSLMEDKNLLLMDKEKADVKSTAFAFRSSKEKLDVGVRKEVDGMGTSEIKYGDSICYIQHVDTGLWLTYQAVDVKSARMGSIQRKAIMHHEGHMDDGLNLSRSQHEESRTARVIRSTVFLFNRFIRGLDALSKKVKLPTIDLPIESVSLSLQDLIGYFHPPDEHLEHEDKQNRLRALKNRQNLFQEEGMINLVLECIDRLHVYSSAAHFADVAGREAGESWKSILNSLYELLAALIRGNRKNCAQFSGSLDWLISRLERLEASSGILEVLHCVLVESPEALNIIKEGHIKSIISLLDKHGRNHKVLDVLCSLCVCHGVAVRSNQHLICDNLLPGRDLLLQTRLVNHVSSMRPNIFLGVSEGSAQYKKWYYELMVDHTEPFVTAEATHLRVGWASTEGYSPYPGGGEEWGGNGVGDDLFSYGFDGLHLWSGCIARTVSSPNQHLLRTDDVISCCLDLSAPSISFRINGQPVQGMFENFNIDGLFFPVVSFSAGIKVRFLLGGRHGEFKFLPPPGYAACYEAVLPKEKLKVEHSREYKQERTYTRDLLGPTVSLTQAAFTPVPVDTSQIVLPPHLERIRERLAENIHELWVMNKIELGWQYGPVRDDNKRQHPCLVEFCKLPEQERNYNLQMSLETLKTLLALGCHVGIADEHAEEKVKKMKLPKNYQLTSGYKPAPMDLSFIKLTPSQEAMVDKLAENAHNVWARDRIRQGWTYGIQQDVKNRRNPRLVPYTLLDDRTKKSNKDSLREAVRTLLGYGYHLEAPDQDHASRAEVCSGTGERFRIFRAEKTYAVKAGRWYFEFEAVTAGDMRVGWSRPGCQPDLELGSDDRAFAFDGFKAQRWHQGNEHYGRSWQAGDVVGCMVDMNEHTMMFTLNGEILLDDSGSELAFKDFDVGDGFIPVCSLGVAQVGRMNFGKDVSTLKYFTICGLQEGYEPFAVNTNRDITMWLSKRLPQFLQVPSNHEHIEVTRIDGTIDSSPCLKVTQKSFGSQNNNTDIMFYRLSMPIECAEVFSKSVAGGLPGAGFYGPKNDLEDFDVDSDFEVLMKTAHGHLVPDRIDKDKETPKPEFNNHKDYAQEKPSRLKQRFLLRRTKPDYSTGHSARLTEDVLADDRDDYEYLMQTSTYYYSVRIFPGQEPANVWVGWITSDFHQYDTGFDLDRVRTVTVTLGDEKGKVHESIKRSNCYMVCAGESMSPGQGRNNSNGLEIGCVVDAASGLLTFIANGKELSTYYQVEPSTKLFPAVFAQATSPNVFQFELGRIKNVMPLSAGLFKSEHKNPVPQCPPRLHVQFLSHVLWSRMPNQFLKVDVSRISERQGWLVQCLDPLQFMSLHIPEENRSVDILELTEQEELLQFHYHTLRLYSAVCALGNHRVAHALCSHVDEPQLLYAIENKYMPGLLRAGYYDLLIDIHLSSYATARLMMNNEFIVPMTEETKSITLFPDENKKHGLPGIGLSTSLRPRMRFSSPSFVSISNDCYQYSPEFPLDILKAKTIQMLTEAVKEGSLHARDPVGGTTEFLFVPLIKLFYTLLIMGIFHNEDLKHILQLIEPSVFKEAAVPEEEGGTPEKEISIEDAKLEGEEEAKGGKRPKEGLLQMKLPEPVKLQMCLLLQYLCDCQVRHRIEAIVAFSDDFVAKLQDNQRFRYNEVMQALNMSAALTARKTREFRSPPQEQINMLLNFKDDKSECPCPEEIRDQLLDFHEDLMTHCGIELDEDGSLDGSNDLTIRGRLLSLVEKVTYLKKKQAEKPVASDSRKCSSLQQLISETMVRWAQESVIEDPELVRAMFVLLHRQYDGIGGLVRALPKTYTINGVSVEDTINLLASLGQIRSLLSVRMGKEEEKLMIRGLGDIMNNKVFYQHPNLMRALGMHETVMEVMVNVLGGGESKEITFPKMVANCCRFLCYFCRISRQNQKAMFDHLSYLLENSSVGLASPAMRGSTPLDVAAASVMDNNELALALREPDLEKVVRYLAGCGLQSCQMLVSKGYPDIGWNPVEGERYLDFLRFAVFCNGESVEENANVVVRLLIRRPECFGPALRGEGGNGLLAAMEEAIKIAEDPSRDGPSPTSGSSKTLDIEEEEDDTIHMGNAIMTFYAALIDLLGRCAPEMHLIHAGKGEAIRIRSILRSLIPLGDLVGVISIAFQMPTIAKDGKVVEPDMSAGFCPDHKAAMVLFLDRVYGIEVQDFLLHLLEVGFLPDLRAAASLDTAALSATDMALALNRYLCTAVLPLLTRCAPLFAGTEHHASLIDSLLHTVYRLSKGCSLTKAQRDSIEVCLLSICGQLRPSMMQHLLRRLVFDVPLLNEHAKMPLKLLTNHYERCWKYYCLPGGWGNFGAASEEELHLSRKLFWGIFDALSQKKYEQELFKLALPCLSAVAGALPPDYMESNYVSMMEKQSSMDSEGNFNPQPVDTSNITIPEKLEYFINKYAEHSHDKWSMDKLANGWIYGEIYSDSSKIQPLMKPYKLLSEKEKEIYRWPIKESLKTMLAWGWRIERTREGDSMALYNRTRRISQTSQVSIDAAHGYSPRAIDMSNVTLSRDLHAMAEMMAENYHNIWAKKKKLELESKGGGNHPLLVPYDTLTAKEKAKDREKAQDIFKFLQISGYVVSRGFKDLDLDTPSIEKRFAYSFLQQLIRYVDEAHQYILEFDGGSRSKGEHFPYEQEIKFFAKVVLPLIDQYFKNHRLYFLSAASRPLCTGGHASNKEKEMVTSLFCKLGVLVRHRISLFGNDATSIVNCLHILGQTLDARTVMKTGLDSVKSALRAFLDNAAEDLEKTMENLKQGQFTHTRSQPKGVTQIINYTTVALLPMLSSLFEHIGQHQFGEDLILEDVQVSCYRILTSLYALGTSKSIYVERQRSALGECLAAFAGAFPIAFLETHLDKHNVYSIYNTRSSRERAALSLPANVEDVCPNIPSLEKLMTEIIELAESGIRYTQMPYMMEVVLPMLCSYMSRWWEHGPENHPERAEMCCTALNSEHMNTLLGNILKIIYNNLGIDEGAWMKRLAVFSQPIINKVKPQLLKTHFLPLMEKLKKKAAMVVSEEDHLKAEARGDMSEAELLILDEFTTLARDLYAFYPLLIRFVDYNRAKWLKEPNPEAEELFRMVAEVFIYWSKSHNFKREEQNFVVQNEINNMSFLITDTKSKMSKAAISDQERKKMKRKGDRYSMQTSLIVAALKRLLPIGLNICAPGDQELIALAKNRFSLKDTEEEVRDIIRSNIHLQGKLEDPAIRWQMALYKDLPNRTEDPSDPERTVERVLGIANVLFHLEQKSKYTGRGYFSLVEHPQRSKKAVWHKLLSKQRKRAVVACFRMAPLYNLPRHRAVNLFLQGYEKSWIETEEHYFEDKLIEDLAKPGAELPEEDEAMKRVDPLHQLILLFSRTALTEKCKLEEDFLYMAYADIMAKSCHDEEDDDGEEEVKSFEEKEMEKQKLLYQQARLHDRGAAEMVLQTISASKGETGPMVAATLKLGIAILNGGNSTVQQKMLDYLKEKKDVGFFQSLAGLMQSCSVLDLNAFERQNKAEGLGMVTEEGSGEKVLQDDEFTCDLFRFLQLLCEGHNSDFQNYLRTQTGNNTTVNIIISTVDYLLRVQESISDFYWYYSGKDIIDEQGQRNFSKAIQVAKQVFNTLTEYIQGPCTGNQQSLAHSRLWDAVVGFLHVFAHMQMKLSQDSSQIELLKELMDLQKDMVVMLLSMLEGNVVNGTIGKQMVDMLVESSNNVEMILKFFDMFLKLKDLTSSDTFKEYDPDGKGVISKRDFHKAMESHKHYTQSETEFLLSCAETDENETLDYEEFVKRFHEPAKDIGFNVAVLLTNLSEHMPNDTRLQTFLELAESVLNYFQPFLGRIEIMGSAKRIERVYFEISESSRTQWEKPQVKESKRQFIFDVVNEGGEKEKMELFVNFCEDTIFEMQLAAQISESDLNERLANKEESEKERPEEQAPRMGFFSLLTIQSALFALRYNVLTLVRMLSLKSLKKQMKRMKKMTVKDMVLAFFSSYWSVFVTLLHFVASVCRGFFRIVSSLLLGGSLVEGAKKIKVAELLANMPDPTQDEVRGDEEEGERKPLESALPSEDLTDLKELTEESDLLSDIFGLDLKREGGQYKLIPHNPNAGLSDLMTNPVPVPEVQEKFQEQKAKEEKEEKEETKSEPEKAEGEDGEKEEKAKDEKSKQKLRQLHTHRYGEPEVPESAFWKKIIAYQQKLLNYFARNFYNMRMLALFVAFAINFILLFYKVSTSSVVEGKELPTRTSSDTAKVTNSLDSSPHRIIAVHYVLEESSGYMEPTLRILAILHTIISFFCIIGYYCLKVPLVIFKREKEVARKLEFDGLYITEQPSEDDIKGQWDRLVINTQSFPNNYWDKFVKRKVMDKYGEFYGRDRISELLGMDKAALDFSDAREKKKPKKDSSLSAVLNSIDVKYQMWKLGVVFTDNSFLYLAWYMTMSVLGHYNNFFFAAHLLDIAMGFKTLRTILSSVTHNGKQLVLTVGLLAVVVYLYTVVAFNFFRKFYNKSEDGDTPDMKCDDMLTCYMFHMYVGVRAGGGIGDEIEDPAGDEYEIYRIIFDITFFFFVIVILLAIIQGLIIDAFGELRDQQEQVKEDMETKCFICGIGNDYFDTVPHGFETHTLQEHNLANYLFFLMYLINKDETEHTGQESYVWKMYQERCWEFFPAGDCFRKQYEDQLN
Procedure: With a wide range of ent-verticilide analogs in hand, organized by five series that systematically change the backbone functionality without modifying the alternating methyl and pentyl side chains, we pursued their evaluation in the calcium sparks assay for insight into potential antiarrhythmic activity.[3] Left ventricular myocytes were isolated from C57BL/6J mice and subjected to brief incubation with saponin, which permeabilizes the sarcolemma and enables equivalent access of compounds to RyR2, irrespective of their permeability.[14] Cardiomyocytes were then incubated in an internal solution designed to promote spontaneous RyR2-mediated calcium release events, known as sparks,[34] and the spark frequency was recorded following a 15 min incubation with 25 μM of each compound. Figure 3 summarizes these findings; no inhibition of RyR2 (lack of activity) is reflected as a value of 1 (dotted line). […] In that study, we noted that the 18-membered oligomer was more forgiving. […] Series 4–5 analogs produced nearly flat SAR, with no notable inhibition by any of the analogs.
Figure 3 RyR2-mediated calcium spark frequency in permeabilized left ventricular myocytes incubated with 25 μM drug for 15 min. All data normalized to vehicle (DMSO) condition. […] (A) *P < 0.0001 vs vehicle. N = 29 (2), 102 (5), 105 (5), 108 (5), 119 (4), and 87 cells (mice). Previously reported in Johnston et al. ACS Med. Chem. Lett., 2022, 13(11), 1755–1762. (B) *P < 0.0001 vs vehicle. # P = 0.00041 vs vehicle. N = 38, 46, 54, 50, and 50 cells, respectively, from 2 mice. (C) *P < 0.0001 vs vehicle. # P = 0.034 vs vehicle. N = 79 (4), 58 (3), 79 (4), 80 (5), and 91 (5) cells (mice). (D) P > 0.05 for all groups vs vehicle. N = 66 (4), 42 (2), 37 (2), 38 (2), 43(2), and 37 (2) cells (mice). (E) *P < 0.0001 vs vehicle. N = 66 (4), 85 (5), 93 (5), 100 (5), 89 (5), and 67 (4) cells (mice).
Calcium spark measurements were made, as previously described.[5] Briefly, ventricular cardiomyocytes were isolated from C57Bl/6J mice, adhered to laminin-coated glass bottom culture dishes, permeabilized with saponin, and incubated with an internal solution containing the calcium sensitive dye, Fluo-4. Elementary spark recordings were made using an Olympus inverted microscope equipped with a solid-state diode laser at 488 nm for excitation, 40× silicone objective (1.25 NA), and Hamamatsu CMOS camera for detection. Spark detection analysis was performed using SparkMaster2.[37]
Statistical analysis was carried out in R using a hierarchical clustering model to cluster data by experiment and account for mouse-to-mouse variability.[38] A cutoff value of 0.05 was used as the threshold to reject the null hypothesis. The numbers of cells and replicates (mice) are indicated in the figure legend for each compound.
Johnston et al. Supporting Information […]
of 0.05 was used as the threshold to reject the null hypothesis.
Safety: No unexpected or unusually high safety hazards were encountered.
Biological Experiment Data: Calcium spark parameters
For all series, assay is run with 25 μM solution of drug. Values are normalized to the vehicle (DMSO) condition and reported as mean ± standard deviation. Statistical comparisons were made using a hierarchical clustering model with Bonferroni correction. Adjusted p-values < 0.05 vs vehicle are indicated with an asterisk. Each mouse was an independent experiment, the replicates are listed as n (cells).
Supplement Table 1. Calcium spark parameters from murine cardiomyocytes for ent-verticilide and series 1 analogs.
Supplement Table 2. Calcium spark parameters from murine cardiomyocytes for series 2 analogs.
Supplement Table 3. Calcium spark parameters from murine cardiomyocytes for series 3 analogs. […]
Cardiovasc. Res.

H-dAla-MeAhp-dAla-MeAhp-dAla-MeAhp-dAla-MeAhp-OH
ring closure, yield after HPLC [1]: 7%

H-dAla-MeAhp-dMeAla-MeAhp-dMeAla-MeAhp-dMeAla-MeAhp-OH?
ring closure, yield after HPLC [1]: 8%

H-dAla-MeAhp-dAla-MeAhp-dMeAla-MeAhp-dMeAla-MeAhp-OH?
ring closure, yield after HPLC [1]: 8%

(3R,6S,9R,12S,15R,18S,21R,24S)-3,4,9,10,13,15,16,19,21,22-decamethyl-6,12,18,24-tetrapentyl-1,7-dioxa-4,10,13,16,19,22-hexaazacyclotetracosan-2,5,8,11,14,17,20,23-octaone [3.2]
Normalized Calcium Leak (RyR2): 0.99 ± 0.53 | Calcium spark Amplitude (normalized to vehicle) (RyR2): 1.02 ± 0.20 | Calcium spark Leak (normalized to vehicle) (RyR2): 0.99 ± 0.53 | Calcium spark Mass (normalized to vehicle) (RyR2): 1.03 ± 0.50 | Calcium spark Frequency (normalized to vehicle) (RyR2): 0.97 ± 0.28

(3R,6S,9R,12S,15R,18S,21R,24S)-1,3,4,7,9,13,15,19,21-nonamethyl-6,12,18,24-tetrapentyl-1,4,7,10,13,16,19,22-octaazacyclotetracosan-2,5,8,11,14,17,20,23-octaone [4.5]
Normalized Calcium Leak (RyR2): 1.43 ± 0.66

H-dMeAla-MeAhp-dAla-MeAhp-dMeAla-MeAhp-dAla-MeAhp-OH
ring closure, yield after HPLC [1]: 7%

(3S,6R,9S,12R,15S,18R,21S,24R)-1,4,6,7,10,12,13,16,18,19,24-undecamethyl-3,9,15,21-tetrapentyl-1,4,7,10,13,16,19,22-octaazacyclotetracosan-2,5,8,11,14,17,20,23-octaone [5.2]
Normalized Calcium Leak (RyR2): 1.08 ± 0.66

(3R,6S,9R,12S,15R,18S,21R,24S)-1,3,7,9,13,15,19,21-octamethyl-6,12,18,24-tetrapentyl-1,4,7,10,13,16,19,22-octaazacyclotetracosan-2,5,8,11,14,17,20,23-octaone [4.6]
Normalized Calcium Leak (RyR2): 1.15 ± 0.71

(3S,6R,9S,12R,15S,18R,21S,24R)-1,6,7,12,13,18,19,24-Octamethyl-3,9,15,21-tetrapentyl-1,4,7,10,13,16,19,22-octaazacyclotetracosan-2,5,8,11,14,17,20,23-octaone [2.5]
Normalized Calcium Leak (RyR2): 1.09 ± 0.46 | Calcium spark Amplitude (normalized to vehicle) (RyR2): 1.17 ± 0.34 | Calcium spark Leak (normalized to vehicle) (RyR2): 1.09 ± 0.46 | Calcium spark Mass (normalized to vehicle) (RyR2): 1.06 ± 0.35 | Calcium spark Frequency (normalized to vehicle) (RyR2): 1.04 ± 0.20

(3S,6R,9S,12R,15S,18R,21S,24R)-1,4,6,7,10,12,13,18,19,24-decamethyl-3,9,15,21-tetrapentyl-1,4,7,10,13,16,19,22-octaazacyclotetracosan-2,5,8,11,14,17,20,23-octaone [5.3]
Normalized Calcium Leak (RyR2): 1.23 ± 0.57

H-dMeAla-Hhp-dMeAla-Hhp-dMeAla-Hhp-dMeAla-Ahp-OH
ring closure, yield after HPLC [1]: 6%

H-dMeAla-MeAhp-dAla-MeAhp-dAla-MeAhp-dAla-MeAhp-OH
ring closure, yield after HPLC [1]: 5%

(3R,6S,9R,12S,15R,18S,21R,24S)-3,4,9,10,15,16,19,21,22-nonamethyl-6,12,18,24-tetrapentyl-1,7,13-trioxa-4,10,16,19,22-pentaazacyclotetracosan-2,5,8,11,14,17,20,23-octaone [3.1]
Normalized Calcium Leak (RyR2): 0.75 ± 0.63 | Calcium spark Amplitude (normalized to vehicle) (RyR2): 0.99 ± 0.20 | Calcium spark Leak (normalized to vehicle) (RyR2): 0.75 ± 0.63 | Calcium spark Mass (normalized to vehicle) (RyR2): 0.81 ± 0.55 | Calcium spark Frequency (normalized to vehicle) (RyR2): 0.79 ± 0.29 | Inhibition of RyR2-mediated calcium sparks (in words) (RyR2): partial inhibition, but less so than analog 2.1; also recorded: measurable activity

H-dAla-Hhp-dMeAla-Hhp-dMeAla-Hhp-dMeAla-Hhp-OH
ring closure, yield after HPLC ([1]; PyBOP): 18%

(3R,6S,9R,12S,15R,18S,21R,24S)-3,4,9,10,15,16,21,22-octamethyl-6,12,18,24-tetrapentyl-1,13-dioxa-4,7,10,16,19,22-hexaazacyclotetracosan-2,5,8,11,14,17,20,23-octaone [2.3]
Normalized Calcium Leak (RyR2): 1.03 ± 0.53 | Calcium spark Amplitude (normalized to vehicle) (RyR2): 0.92 ± 0.19 | Calcium spark Leak (normalized to vehicle) (RyR2): 1.03 ± 0.53 | Calcium spark Mass (normalized to vehicle) (RyR2): 1.02 ± 0.43 | Calcium spark Frequency (normalized to vehicle) (RyR2): 1.01 ± 0.20

(3S,6R,9S,12R,15S,18R,21S,24R)-1,4,6,7,12,13,16,18,19,24-decamethyl-3,9,15,21-tetrapentyl-1,4,7,10,13,16,19,22-octaazacyclotetracosan-2,5,8,11,14,17,20,23-octaone [5.4]
Normalized Calcium Leak (RyR2): 1.14 ± 0.69

H-dAla-Hhp-dAla-Hhp-dAla-Hhp-dAla-Hhp-OH
ring closure, yield after HPLC [1]: 12%

H-dMeAla-MeAhp-dMeAla-Ahp-dMeAla-MeAhp-dMeAla-Ahp-OH
ring closure, yield after HPLC [1]: 7%

H-dAla-Hhp-dAla-Hhp-dMeAla-Hhp-dMeAla-Hhp-OH?
ring closure, yield after HPLC ([1]; PyBOP): 11%

H-dMeAla-Hhp-dAla-Hhp-dAla-Hhp-dAla-Hhp-OH
ring closure, yield after HPLC [1]: 23%

H-dMeAla-Hhp-dMeAla-Hhp-dMeAla-MeAhp-dMeAla-MeAhp-OH
ring closure, yield after HPLC [1]: 4%

H-dMeAla-MeAhp-dMeAla-MeAhp-dMeAla-MeAhp-dMeAla-Hhp-OH?
ring closure, yield after HPLC [1]: 16%

(3R,6S,9R,12S,15R,18S,21R,24S)-3,4,9,10,15,16,21,22-octamethyl-6,12,18,24-tetrapentyl-1,7,13-trioxa-4,10,16,19,22-pentaazacyclotetracosan-2,5,8,11,14,17,20,23-octaone [2.1]
Normalized Calcium Leak (RyR2): 0.60 ± 0.65 | Calcium spark Amplitude (normalized to vehicle) (RyR2): 0.93 ± 0.31 | Calcium spark Leak (normalized to vehicle) (RyR2): 0.60 ± 0.65 | Calcium spark Mass (normalized to vehicle) (RyR2): 1.04 ± 0.64 | Calcium spark Frequency (normalized to vehicle) (RyR2): 0.51 ± 0.25 | Inhibition of RyR2-mediated calcium sparks (in words) (RyR2): modest potency; also recorded: measurable activity

(3R,6S,9R,12S,15R,18S,21R,24S)-3,4,9,10,15,16,21,22-octamethyl-6,12,18,24-tetrapentyl-1-oxa-4,7,10,13,16,19,22-heptaazacyclotetracosan-2,5,8,11,14,17,20,23-octaone [2.4]
Normalized Calcium Leak (RyR2): 0.97 ± 0.56 | Calcium spark Amplitude (normalized to vehicle) (RyR2): 1.08 ± 0.22 | Calcium spark Leak (normalized to vehicle) (RyR2): 0.97 ± 0.56 | Calcium spark Mass (normalized to vehicle) (RyR2): 0.98 ± 0.39 | Calcium spark Frequency (normalized to vehicle) (RyR2): 0.97 ± 0.17

(3R,6S,9R,12S,15R,18S,21R,24S)-1,3,4,7,9,10,13,15,16,19,21-undecamethyl-6,12,18,24-tetrapentyl-1,4,7,10,13,16,19,22-octaazacyclotetracosan-2,5,8,11,14,17,20,23-octaone [4.2]
Normalized Calcium Leak (RyR2): 1.35 ± 1.14

(3S,6R,9S,12R,15S,18R,21S,24R)-1,4,6,7,12,13,18,19,24-nonamethyl-3,9,15,21-tetrapentyl-1,4,7,10,13,16,19,22-octaazacyclotetracosan-2,5,8,11,14,17,20,23-octaone [5.5]
Normalized Calcium Leak (RyR2): 1.14 ± 0.65

(3R,6S,9R,12S,15R,18S,21R,24S)-3,4,7,9,10,15,16,19,21,22-decamethyl-6,12,18,24-tetrapentyl-1,13-dioxa-4,7,10,16,19,22-hexaazacyclotetracosan-2,5,8,11,14,17,20,23-octaone [3.3]
Normalized Calcium Leak (RyR2): 0.93 ± 0.45 | Calcium spark Amplitude (normalized to vehicle) (RyR2): 1.00 ± 0.16 | Calcium spark Leak (normalized to vehicle) (RyR2): 0.93 ± 0.45 | Calcium spark Mass (normalized to vehicle) (RyR2): 0.96 ± 0.42 | Calcium spark Frequency (normalized to vehicle) (RyR2): 0.96 ± 0.26
